{
  "source": "patent US20210335449A1",
  "about": "“Method or System for Identification of a Causative Mutation Causing a Phenotype of Interest in a Test Sample” (Oxford University Innovation Limited, priority 2018, published 2021)",
  "test_system": "Marchantia polymorpha wild-type plants",
  "assay": "Chlorsulfuron resistance determination (survival two weeks after exposure to a lethal dose)",
  "assay_type": "in vivo",
  "details": "0.1 ppm dose (lethal dose); survival assessed two weeks following exposure",
  "experimental": "Marchantia polymorpha spores were irradiated with ultraviolet B irradiation and seven independent mutant lines resistant to the herbicide chlorsulfuron were identified. Chlorsulfuron resistance was determined by a Marchantia polymorpha plant that was alive two weeks following exposure to a lethal dose of Chlorsulfuron (0.1 ppm dose, i.e. a dose sufficient to kill 100% of wild-type plants).",
  "data": [
    {"smiles": "COc1nc(C)nc(NC(=O)NS(=O)(=O)c2ccccc2Cl)n1", "note": "[Chlorsulfuron]", "values": [
      {"measurement": "wild-type plants killed", "value": 100, "unit": "%"}
    ]}
  ]
}
